Measured values published in patent US5994308A, “Broad spectrum antimicrobial peptides containing a tryptophan triplet and methods of use” (Board of Trustees of Southern Illinois University, priority 1997, dated 1999).
Where a SMILES comes first, the peptide text is derived from it.

How the values were obtained:
Aspergillus fumigatus = format: cell-based; conditions: 24 h
Experimental: (§1) The minimum inhibitory concentration (MIC) was determined by growing fungal strains in YG media until the fungi reached logarithmic phase. The cells were diluted in YG medium then placed in a 96-well plate along with a series of 2-fold dilutions of the peptides. The plate was then incubated at 37° C. for 24 hours. Minimum inhibitory growth was defined as the lowest concentration at which there was no fungal growth.

Candida albicans = format: cell-based; conditions: 24 h
Experimental: as §1

SMILES	MINIMUM INHIBITORY CONCENTRATION Aspergillus fumigatus (Aspergillus fumigatus) [µg/mL]	MINIMUM INHIBITORY CONCENTRATION Candida albicans (Candida albicans) [µg/mL]
CC(C)C[C@H](NC(=O)[C@H](Cc1ccccc1)NC(=O)[C@@H]1CCCN1C(=O)[C@H](Cc1c[nH]c2ccccc12)NC(=O)[C@H](Cc1c[nH]c2ccccc12)NC(=O)[C@H](Cc1c[nH]c2ccccc12)NC(=O)[C@@H]1CCCN1C(=O)[C@H](Cc1ccccc1)NC(=O)[C@@H](N)CCCNC(=N)N)C(=O)N[C@@H](CCCNC(=N)N)C(=O)O [Peptide 3, RFPWWWPFLR] (H-RFPWWWPFLR-OH)	500	
CC(C)C[C@H](NC(=O)[C@H](Cc1ccccc1)NC(=O)[C@@H]1CCCN1C(=O)[C@H](Cc1c[nH]c2ccccc12)NC(=O)[C@H](Cc1c[nH]c2ccccc12)NC(=O)[C@H](Cc1c[nH]c2ccccc12)NC(=O)[C@@H]1CCCN1C(=O)[C@H](Cc1ccccc1)NC(=O)[C@H](CCCNC(=N)N)NC(=O)[C@H](CCCNC(=N)N)NC(=O)[C@@H](N)C(C)C)C(=O)N[C@@H](CCCNC(=N)N)C(=O)N[C@@H](CCCNC(=N)N)C(=O)O [Peptide 1, VRRFPWWWPFLRR]	250	1000
N[C@@H](Cc1ccccc1)C(=O)N1CCC[C@H]1C(=O)N[C@@H](Cc1c[nH]c2ccccc12)C(=O)N[C@@H](Cc1c[nH]c2ccccc12)C(=O)N[C@@H](Cc1c[nH]c2ccccc12)C(=O)N1CCC[C@H]1C(=O)N[C@@H](Cc1ccccc1)C(=O)O [Peptide 4, FPWWWPF] (H-FPWWWPF-OH)	500	
